Where two headings read alike, the source gives them in different places.
Tests used:
[1] = system: single IPAN of the myenteric plexus; experiment: IPAN electrophysiology, jejunum with luminal epithelium stripped; set-up: species or system mouse; conditions: squalamine applied directly onto the myenteric plexus
Experimental: Intrinsic primary afferent neurons (IPANs) are believed to be normally stimulated indirectly, through release of neurotransmitters from the epithelium. Since squalamine can be readily transported across an intact intestinal epithelial layer, and can enter a neuron, altering the surface potential of its plasma membrane, an experiment was designed to determine whether the effects of squalamine on the IPAN required the presence of the luminal epithelium.
Jejunum was prepared as described in the previous experiment, except the luminal epithelium was manually stripped off the organ using forceps. Squalamine was applied directly onto the myenteric plexus from the luminal surface. Electrophysiological studies were repeated to monitor the activity of a single IPAN within the area of the release of compound. Within 5 seconds the IPAN began a series of spontaneous discharges (FIG. 13A). […] Squalamine appears to be capable of communicating directly with the ENS, in contrast to most substances that communicate with the ENS only indirectly, via their effects on the epithelium.

[2] = system: mice with constipation due to overexpression of human αS; experiment: Oral squalamine in mice with constipation due to overexpression of human αS; format: in vivo, mouse; conditions: orally administered (West et al, manuscript in preparation)
[3] = system: patients with PD and constipation; conditions: in vivo
Experimental: In Stage 2, 34 patients were evaluated. […] This dose was then maintained (“fixed dose”) for an additional 3-5 days. After the “fixed dose”, these patients were randomly assigned to either continued treatment at that dose or to a matching placebo, for an additional 4-6 days prior to a 2-week wash-out.
A second cohort of 19 patients received squalamine (ENT-01) escalating from 100 mg/day to a maximum of 250 mg/day without subsequent randomization to squalamine (ENT-01) or placebo. Criteria for dose selection and efficacy were identical to those used in the previous cohort.
(§1) Adverse events were coded using the current version of MedDRA. Severity of AEs were assessed by investigators according to CTCAE (v4.03): Grade 1 is labeled as Mild, Grade 2 as Moderate, and Grade 3 and above as Severe. […] The number (percentage) of subjects who experienced an AE during escalation and fixed dosing periods were summarized by dose level and overall for each stage. The denominator for calculating the percentages were based on the number of subjects ever exposed to each dose and overall.

[4] = Pharmacokinetics of orally administered squalamine (ENT-01) in Stage 2; format: in vivo, human; conditions: Stage 2, oral; for Cmax: squalamine ion, mean
Experimental: Pharmakokinetics: PK data were collected on the 10 patients enrolled in Stage 1 and 10 patients enrolled in Stage 2 to determine the extent of systemic absorption. In Stage 1, PK data were obtained at each visit, pre-medication, at 1, 2, 4, 8 and 24 hours (Table 14). In Stage 2, PK was measured on days 1 and 6 of the randomization period pre-medication, at 1, 2, 4 and 8 hours (Table 15).
The mean Cmax, Tmax and T1/2 and AUC of the squalamine ion following squalamine (ENT-01) oral dosing for Stage 1 patients. The PK analyses are only approximate, as the lower limit of the validated concentration range was 10 ng/ml; most of the measured concentrations fell below that value. The mean Cmax, Tmax and T1/2 and AUC of the squalamine ion following squalamine (ENT-01) oral dosing for Stage 2 patients. The PK analyses are only approximate, as the lower limit of the validated concentration range was 0.5 ng/ml.

[5] = system: patients with PD and constipation; conditions: in vivo; remark: listed apart in the source
Experimental: In Stage 1, ten (10) PD patients received a single escalating dose of squalamine (ENT-01) every 3-7 days beginning at 25 mg and continuing up to 200 mg or the limit of tolerability, followed by 2-weeks of wash-out. Duration of this part of the trial was 22-57 days. The 10 subjects in the sentinel group were assigned to Cohort 1 and participated in 8 single dosing periods. Tolerability limits included diarrhea or vomiting.
Each dose period was staggered, so that subjects 1-2 were administered a single dose of the drug at the lowest dose of 25 mg. Once 24 hours have elapsed, and provided there are no safety concerns, the patient was sent home and brought back on day 4-8 for the next dose. During the days the subjects are home, they completed the daily diaries and e-mailed them to the study coordinators. Subjects 3-10 were dosed after the first 2 subjects have been observed for 72 hours, i.e. on Day 4. Subjects 1-2 were also brought back on Day 4-8 and given a single dose of 50 mg. Once another 24 hours have elapsed and provided there are no safety concerns, the patients were all sent home and instructed to return on Day 7 for the next dosing level. This single dosing regimen was continued until each subject was given a single dose of 200 mg or has reached a dose limiting toxicity (DLT). DLT was the dose which induces repeated vomiting, diarrhea, abdominal pain or symptomatic postural hypotension within 24 hours of dosing.
as §1

patients with PD = experiment: Phase 2 trial Stage 2: circadian rhythm of wrist skin temperature (I-Button); format: in vivo, human
Experimental: FIGS. 20A-F show the effect of squalamine (ENT-01) on circadian rhythm. The figures depict the results of circadian non-parametric analysis of wrist skin temperature rhythm throughout each condition (baseline, treatment with highest dose of squalamine (ENT-01) and washout). The following parameters were measured: […] (FIG. 20A), inter-daily stability (IS) (FIG. 20B), relative amplitude (RA) (FIG. 20C), circadian function index (FIG. 20D), M5V (FIG. 20E), which refers to the five consecutive hours with the highest temperature or high somnolence, and L10V (FIG. 20F), which indicates the mean of the ten consecutive hours with lowest temperature or high activation. […] Student's paired t-test, *p<0.05, **p<01, ***p<0.001.Values expressed as mean±SEM (n=12 in each condition).
(6) I-Button Temperature Assessment. […] From the collected data, the mesor, amplitude, acrophase (time of peak temperature), Rayleight test (an index of interdaily stability), mean waveforms are calculated.);
Circadian rhythm of skin temperature was evaluable in 12 patients (i.e., those who had recordings that extended from baseline through washout). Circadian system functionality was evaluated by continuously monitoring wrist skin temperature using a temperature sensor (Thermochron iButton DS1921H; Maxim, Dallas, Tex.) (Sarabia et al. 2008). […]

Row | Structure (SMILES) | time to onset of spontaneous discharges of the IPAN [1] [s] | gastro-intestinal motility [2] | Eye infection, Moderate [3] | AUC0-8 hr ([4]; dose 75 mg) [ng·h/mL] | Tmax (Median Value) ([4]; dose 75 mg) [h] | Cmax ([4]; dose 75 mg) [ng/mL] | AUC0-8 hr ([4]; dose 100 mg) [ng·h/mL] | Tmax (Median Value) ([4]; dose 100 mg) [h] | Cmax ([4]; dose 100 mg) [ng/mL] | AUC0-8 hr ([4]; dose 175 mg) [ng·h/mL] | Tmax (Median Value) ([4]; dose 175 mg) [h] | Cmax ([4]; dose 175 mg) [ng/mL] | Eye infection, Moderate [5] | markers of healthy circadian function (IS, RA, CFI, IV) (patients with PD; fixed dose vs baseline, 12 patients) | circadian parameters (IS, CFI) (patients with PD; wash-out period)
1 | CC(C)[C@@H](CC[C@@H](C)[C@H]1CC[C@H]2[C@@H]3[C@H](O)C[C@H]4C[C@@H](NCCCNCCCCN)CC[C@]4(C)[C@H]3CC[C@]12C)OS(=O)(=O)O [squalamine] | ≤ 5 | stimulates gastro-intestinal motility | – | – | – | – | – | – | – | – | – | – | – | – | –
2 | CC(C)[C@@H](CC[C@@H](C)[C@H]1CC[C@H]2[C@@H]3[C@H](O)C[C@H]4C[C@@H](NCCCNCCCCN)CC[C@]4(C)[C@H]3CC[C@]12C)OS(=O)(=O)O (single isomer, unassigned; ent-01) [ENT-01] | – | – | 0 n, % | 59.0 | 3.0 | 10.0 | 70.3 | 1.0 | 17.7 | 66.8 | 2.0 | 11.8 | 0 n, % | improved all markers of healthy circadian function | improvement persisted

— patent US11083735B2, “Methods for treating sleep disorders, sleep disturbances, and related symptoms using aminosterol compositions” (Enterin, Inc., priority 2017, dated 2021)
